The values below are quoted from earlier work in patent publication US20090111747A1, “Anti-Diabetic or Anti-Hypertensive Dietary Supplement” (priority 2005, published 2009).

Ends that are not written are not given here.

Series [1] deals with rat intestinal α-glucosidase. To be noted: literature, Inoue et al., 2000.
The test system of another series is mammalian α-glucosidase. To be noted: literature, Oki et al., 1999.

For the substance “Ile-Ile-Ser-Ile-Gly (IISIG; printed: Ile-Ile-Ser-Ile-Gly)”, the “activity against rat intestinal α-glucosidase” value (“activity” for short) in series [1] was “active against rat intestinal α-glucosidase”.
With “Tyr-Tyr-Pro-Leu (YYPL; printed: Tyr-Tyr-Pro-Leu)”, the “inhibitory effect on mammalian α-glucosidase” value in the series on mammalian α-glucosidase is “neither the hydrolysate nor the peptides had any significant inhibitory effect”.
Take “Val-Phe-Ile-Lys-Ala (VFIKA; printed: Val-Phe-Ile-Lys-Ala)”: in series [1], the “activity” value was “active against rat intestinal α-glucosidase”.
As to VFIKAA, the “activity” value in series [1] is “active against rat intestinal α-glucosidase”.
Take IISIGR: in series [1], the “activity” value is on record as “active against rat intestinal α-glucosidase”.
As to Val-Trp, the “inhibitory effect on mammalian α-glucosidase” value in the series on mammalian α-glucosidase was “neither the hydrolysate nor the peptides had any significant inhibitory effect”.
As for VFIKAAA, in series [1], the “activity” value is “active against rat intestinal α-glucosidase”.
